Experiment [1] deals with ECM components (Collagen I, Fibronectin). In words: ECM components in lysates of anterior eye sections of SIG model mice (dot blot / Western blot). To be noted: dex & 4Br-BnIm treated group; overall not statistically significant. It is filed as in vivo, mouse. An excerpt:
Animal Husbandry: Mice were housed and bred at the University of South Florida Byrd Alzheimer's Institute. All animal procedures performed in this study followed the ARVO Statement for the Use of Animals in Ophthalmic and Vision Research and were approved by the University of South Florida Institutional Animal Care and Use Committee. A cohort of 35 animals from separate litters were used for this study; 20 male mice (10 WT and 10 Myoc-KO) and 15 female mice (8 WT and 7 Myoc-KO). […] Technicians performing the drug delivery and tonometry measurements were blinded for animal genotype as well as each compound and the respective vehicle treatment. […] No other treatment groups or geneotypes suffered losses. One WT animal on the Dex+4Br—BnIm study began the study with only one eye. […] 4Br—BnIm treatment dose was based on previous studies. […] The drop was allowed to sit on the eye for 1 minute before the mouse was returned to its cage. One drop of 0.1% Dexamethasone eye drops (Dexamethasone Sodium Phosphate Ophthalmic Solution USP, 0.1% Dexamethasone Phosphate Equivalent; Bauch and Lomb) or PBS (vehicle) was applied to each eye. Dexamethasone treatments were conducted at 6:30 AM, 9 AM, and 2 PM, every day. […]
Quantification and Statistical Analysis: Two-tailed student's t-test and two-way ANOVA with Bonferroni's post-hoc tests were used as detailed in the figure legends. […]

Experiment [2] concerns human trabecular meshwork (HTM) cells. In words: HTM cell lysates, intracellular Collagen I and Fibronectin (Western blot). It is filed as cell-based. How it is done:
(§1) HTM Treatments: Low passage number human trabecular meshwork (HTM) cells were cultured in DMEM supplemented with 10% fetal bovine serum and 1% penicillin/streptomycin. HTM cells were treated for 10 days (replaced every 2-3 days) with 100 nM dexamethasone. HTM cells were validated by expression of myocilin under these conditions.
(§2) Western and Dot Blots: Anterior eye segments and HTM cells were lysed in RIPA buffer. HTM lysates were separated by SDS-PAGE and transferred to a PVDF membrane. Lysates and culture media for dot blots were applied to a nitrocellulose membrane. Blots were blocked in 7% non-fat milk solution. Myocilin antibody was provided by W. D. Stamer. Collagen I and Fibronectin antibodies were purchased from Santa Cruz Biotechnology. Actin antibody was purchased from Sigma Aldrich (St. Louis, Mo.). Blots were developed using species specific secondary antibodies from Southern Biotech.
(§3) Quantification and Statistical Analysis: Two-tailed student's t-test and two-way ANOVA with Bonferroni's post-hoc tests were used as detailed in the figure legends. Values were considered significant if p<0.05. Graphs were generated using GraphPad Prism 5.0 analysis software or Microsoft Excel. N-value in this study is depicted as number of animals or number of eyes where indicated. Graphs are plotted as ±SEM or % CV as indicated.
(In general: In western blotting, separated proteins are transferred to a membrane and probed.)

The subject of a further experiment is mutant myocilin. In words: Cellular studies of mutant myocilin degradation. It is filed as cell-based.
The subject of a further experiment is Wild-type (WT) mice. The experiment in a line: Mouse model of steroid-induced glaucoma, IOP by rebound tonometer, WT mice. It is filed as in vivo. To be noted: 0.1% dexamethasone topically to the eye three times per day.
In experiment [3] the test system is human trabecular meshwork (HTM) cells. In words: HTM cell culture medium, extracellular proteins (dot blot). It is filed as cell-based. The conditions noted are these: dexamethasone. How it is done: as §1, §2, §3
Setting [4] is: HTM cells treated with dex, 24 hours after Grp94 inhibitor treatment.
Where [5] appears, read: HTM cells, 4Br-BnIm in the absence of dexamethasone.

Each structure is given as a SMILES string.

Protocol for Wild-type (WT) mice: A cohort of 35 animals from separate litters were used for this study; 20 male mice (10 WT and 10 Myoc-KO) and 15 female mice (8 WT and 7 Myoc-KO). […] Technicians performing the drug delivery and tonometry measurements were blinded for animal genotype as well as each compound and the respective vehicle treatment. […] The drop was allowed to sit on the eye for 1 minute before the mouse was returned to its cage. One drop of 0.1% Dexamethasone eye drops (Dexamethasone Sodium Phosphate Ophthalmic Solution USP, 0.1% Dexamethasone Phosphate Equivalent; Bauch and Lomb) or PBS (vehicle) was applied to each eye. Dexamethasone treatments were conducted at 6:30 AM, 9 AM, and 2 PM, every day.
IOP Measurements: IOP levels in the mouse eye were obtained using the Icare TonoLab rebound tonometer and their guidelines were followed (Icare, Finland). Measurements were taken at LOAM to control for diurnal fluctuations in IOP levels which occur throughout the day. Mice were anesthetized with 3-4% isoflurane in oxygen once a week. After mice were sufficiently anesthetized, the mice were placed in an open restraint platform and IOP measurements were taken for each eye. […]

Regarding `COC(=O)c1c(O)cc(O)c(Cl)c1CCc1nccn1Cc1ccc(Br)cc1` [4Br—BnIm, methyl 2-(2-(1(4-bromobenzyl)-1H-imidazol-2-yl)ethyl)-3-chloro-4,6-dihydroxybenzoate], in experiment [1], the “Collagen I in anterior eye lysates” value is “decrease in the mean values” and the “Fibronectin in anterior eye lysates” value is “decrease in the mean values”. Also, in experiment [2] (setting [4]), the “intracellular Collagen I levels” value is listed as “statistically significant decreases” and the “intracellular Fibronectin levels” value is recorded as “statistically significant decreases”. In experiment [2] (setting [5]), the “Intracellular Collagen I” value is “unchanged” and the “Intracellular Fibronectin” value is listed as “unchanged”. Further, the “effect on toxic mutant myocilin” value in the experiment with mutant myocilin was “degradation of toxic mutant myocilin”.

As to `C[C@@H]1C[C@H]2[C@@H]3CCC4=CC(=O)C=C[C@]4(C)[C@@]3(F)[C@@H](O)C[C@]2(C)[C@@]1(O)C(=O)CO` [dexamethasone], the “increase in IOP” value in the experiment with Wild-type (WT) mice is on record as “roughly 33%”. In addition, the “increase of extracellular myocilin” value in experiment [3] was “over 500%”.

The values above are taken from US20210030719A1, “GRP94 INHIBITORS TO TREAT STEROID-INDUCED OCULAR HYPERTENSIONS AND GLAUCOMAS” (UNIVERSITY OF SOUTH FLORIDA, priority 2018, published 2021).
